Measured values as given in patent US11351151B2, “Compound having anticancer activity and preparation method and application” (3D Medicines (Beijing) Co., Ltd., priority 2016, dated 2022).
“And” between values parts separate entries of the source, which are not always exact repeats. Equal entries are not always repeated. “Also recorded” adds a separate entry of the source. Values belong to the compound of their own block, whether it stands above or below them.

What was measured:
[1] = Liver homogenate incubation stability study; type: in vitro ADME, SD rat; conditions: for Residual intermediate: listed as intermediate
Experimental: (§1) The purpose of this example was to investigate the stability of the precursor Linifanib-C12-AA5 (compound 8) and the intermediate Linifanib-C12-Asp (compound 12) in plasma, liver homogenate and spleen homogenate (precursor Linifanib-C12-AA5 metabolizes into the intermediates Linifanib-C12-Asp and Linifanib; the intermediate Linifanib-C12-Asp is further metabolized to form Linifanib), and the metabolites were analyzed quantitatively, and the stability of the incubation system was verified with positive drugs, providing references for compound drug evaluation.
(§2) Experimental Procedure • 1. Animal blood was collected, blood samples were placed in EDTA anticoagulation tubes, centrifuged at 3000 g for 15 min at 4° C., plasma was separated, and 2 blood samples were mixed in equal volumes; • 2. Weighed and dissolved a certain amount of Linifanib-C12-AA5/Linifanib-C12-Asp in DMSO:MeOH (2:8), prepared 200 μM mother liquor by purity, and added the compound to the plasma to a final concentration of 2 μg/mL. The organic ratio in the system was not more than 0.5%. • 3. Incubated in a 37° C. water bath and set the sampling points to 0, 0.5, 1, 2, 4, 6, and 8 h. At each sampling point, 100 μL of each sample was added to 300 μL of acetonitrile (with internal standard) for precipitation, centrifuged at 12,000 rpm for 5 min, and 200 μL of supernatant was taken for analysis by LC-MS/MS. • 4. Configured the standard curve to quantify Linifanib, Linifanib-C12-Asp and residual Linifanib-C12-AA5. • 2.2 Linifanib-C12-AA5 and Linifanib-C12-Asp liver/spleen homogenate incubation stability study protocol Test animal • Type: SD rat; Quantity: 2 • Sex: Male; Weight: 200-250 g
(§3) Experimental Procedure • 1. Biological analysis method: established the biological analysis method of the compound Linifanib-C12-Asp and Linifanib; • 2. Rat liver/spleen was taken on the day of the experiment, two pieces were cut and mixed, and homogenized with 4 volumes (1 g: 4 mL) phosphate buffer (pH 7.4), and the temperature was controlled to not exceed 10° C. in the homogenization process; quantitative detection of protein, and controlled liver and spleen protein concentration. • 3. Added the drug Linifanib-C12-AA5, Linifanib-C12-Asp to the liver/spleen homogenate to a concentration of 1000 ng/mL, the incubation volume was 1 mL, and controlled the concentration of the organic solvent in the incubation system to not exceed 0.5%. • 4. Incubated in a 37° C. water bath and took 100 μL of samples at 0, 0.5, 1, 2, 4, 6, and 8 h, respectively. After pre-processing the samples with a definite method, the LC-MS/MS analysis was carried out. • 5. Prepared a standard curve with blank liver/spleen homogenate to quantify Linifanib-C12-Asp and Linifanib. 3. Stability Study Results

[2] = Plasma incubation stability study; type: in vitro ADME, SD rat; conditions: for Residual intermediate: rat plasma, 37° C., 2 μg/mL added, listed as intermediate
Experimental: as §1
• Instrument: AP13000 LC/MS, ABI • Materials: Male SD rats (200-250 g), Beijing Vital River • Test samples: positive drugs and their metabolites M1 and M2, Linifanib-C12-AA5 and its metabolites Linifanib-C12-ASP and Linifanib. 2. Stability study of Linifanib-C12-AA5 and Linifanib-C12-Asp • 2.1 Linifanib-C12-AA5 and Linifanib-C12-Asp plasma incubation stability study protocol Test animal • Type: SD rat; Quantity: 2 • Sex: male; weight: 200-250 g;
as §2

[3] = Spleen homogenate incubation stability study; type: in vitro ADME, SD rat
Experimental: as §1, §2, §3

[4] = liver cancer patients, phase III; cited from earlier work
[5] = rat plasma incubation up to 8 h

conversion into Linifanib in liver homogenate ([1]; liver homogenate): can be rapidly converted into Linifanib
Residual intermediate ([1]; liver homogenate, first experiment, 1000 ng/mL added, 0 h): 1130 ng/mL and 1260 ng/mL
Residual intermediate ([1]; liver homogenate, first experiment, 1000 ng/mL added, 0.5 h): 1000 ng/mL and 970 ng/mL
Residual intermediate ([1]; liver homogenate, first experiment, 1000 ng/mL added, 1 h): 1130 ng/mL and 946 ng/mL
Residual intermediate ([1]; liver homogenate, first experiment, 1000 ng/mL added, 2 h): 1000 ng/mL and 602 ng/mL
Residual intermediate ([1]; liver homogenate, first experiment, 1000 ng/mL added, 4 h): 294 ng/mL and 456 ng/mL
Residual intermediate ([1]; liver homogenate, first experiment, 1000 ng/mL added, 6 h): 452 ng/mL and 226 ng/mL
Residual intermediate ([1]; liver homogenate, second experiment, 0 h): 649 ng/mL and 634 ng/mL
Residual intermediate ([1]; liver homogenate, second experiment, 0.5 h): 452 ng/mL and 469 ng/mL
Residual intermediate ([1]; liver homogenate, second experiment, 6 h): 309 ng/mL and 340 ng/mL
level of Linifanib produced in plasma [2, 5]: close to zero
Residual intermediate ([2]; 0 h): 1900 ng/mL and 2180 ng/mL
Residual intermediate ([2]; 0.5 h): 2100 ng/mL and 2290 ng/mL
Residual intermediate ([2]; 1 h): 2180 ng/mL and 2290 ng/mL
Residual intermediate ([2]; 2 h): 2160 ng/mL and 2110 ng/mL
Residual intermediate ([2]; 4 h): 2210 ng/mL and 2270 ng/mL
Residual intermediate ([2]; 6 h): 2070 ng/mL and 1880 ng/mL
Residual intermediate ([2]; 8 h): 1940 ng/mL and 2060 ng/mL
Residual intermediate ([3]; first experiment, 1000 ng/mL added, 0 h, listed as intermediate): 900 ng/mL and 1020 ng/mL
Residual intermediate ([3]; first experiment, 1000 ng/mL added, 0.5 h): 959 ng/mL
Residual intermediate ([3]; first experiment, 1000 ng/mL added, 2 h, listed as intermediate): 755 ng/mL and 681 ng/mL
Residual intermediate ([3]; first experiment, 1000 ng/mL added, 4 h, listed as intermediate): 610 ng/mL and 589 ng/mL
Residual intermediate ([3]; first experiment, 1000 ng/mL added, 6 h, listed as intermediate): 470 ng/mL and 467 ng/mL
Residual intermediate ([3]; first experiment, 1000 ng/mL added, 8 h, listed as intermediate): 499 ng/mL and 506 ng/mL
Residual intermediate ([3]; second experiment, 0 h, listed as intermediate): 812 ng/mL and 844 ng/mL
Residual intermediate ([3]; second experiment, 0.5 h, listed as intermediate): 770 ng/mL and 744 ng/mL
Residual intermediate ([3]; second experiment, 6 h, listed as intermediate): 496 ng/mL and 483 ng/mL
SMILES: Cc1ccc(F)c(NC(=O)Nc2ccc(-c3cccc4c3c(N)nn4C(=O)CCCCCCCCCCCNC(=O)C[C@H](N)C(=O)O)cc2)c1 [Compound 12]
stability in plasma ([2]; rat plasma incubation up to 8 h, listed as Linifanib-C12-Asp): stably incubated in plasma; also recorded: stable in plasma

SMILES: Cc1ccc(F)c(NC(=O)Nc2ccc(-c3cccc4[nH]nc(N)c34)cc2)c1 [Linifanib, reference compound]
toxicity and side effects [4]: greater than Sorafenib

SMILES: Cc1ccc(F)c(NC(=O)Nc2ccc(-c3cccc4c3c(N)nn4C(=O)CCCCCCCCCCCNC(=O)C[C@H](N)C(=O)N[C@@H](CCC(=O)N[C@@H](CCC(=O)N[C@@H](CCC(=O)N[C@@H](CCC(=O)O)C(=O)O)C(=O)O)C(=O)O)C(=O)O)cc2)c1 [Compound 8]
conversion of prodrug into active drug, liver versus spleen homogenate ([1]; FIG. 5, comparison of liver and spleen homogenate): more specifically converted into an active drug in the liver
production of the intermediates Linifanib-C12-Asp and Linifanib in plasma [2, 5]: did not produce
stability in plasma [2, 5]: stable in plasma
